Read-outs that look alike come from different tables or passages of the source.
Assays:
Experiment in all cases: cell cytotoxicity EC50, CellTiter Glo, SCLC cell line
Type in all cases: cell-based, human
NCI-H128 = system: NCI-H128
Procedure: (§1) The SCLC and leukemia/lymphoma cell lines listed below were obtained from the American Type Culture Collection (Manassas, Va.), Deutsche Sammlung von Mikroorganismen und Zellkulturen (DSMZ, Braunsweig, Germany), or were the generous gift from Dr. Louis Staudt (National Cancer Institute) and were cultured as described in Tse, C., Shoemaker, A. R., Adickes, J., et al., “ABT-263: a potent and orally bioavailable Bcl-2 family inhibitor,” Cancer Res 2008; 68: 3421-3428; and Tahir, S. K., Yang, X., Anderson, M. G., et al., “Influence of Bcl-2 family members on the cellular response of small-cell lung cancer cell lines to ABT-737,” Cancer Res 2007; 67: 1176-1183.
(§2) Cells were treated at 10,000 or 50,000 cells per well for adherent or suspension cells, respectively, in 96-well microtiter plates in the presence of 10% human serum for 48 hours with or without ABT-263, in a humidified chamber with 5% CO2. ABT-263 was synthesized as previously described in Tse, C., Shoemaker, A. R., Adickes, J., et al., “ABT-263: a potent and orally bioavailable Bcl-2 family inhibitor,” Cancer Res 2008; 68: 3421-3428; and Oltersdorf, T., Elmore, S. W., Shoemaker, A. R., et al., “An inhibitor of Bcl-2 family proteins induces regression of solid tumours,” Nature 2005; 435: 677-681, and cell cytotoxicity EC50 values were assessed using CellTiter Glo (Promega, Madison Wis.).

NCI-1417 = system: NCI-1417
Procedure: as §1, §2

NCI-H1618 = system: NCI-H1618
Procedure: as §1, §2

NCI-H2107 = system: NCI-H2107
Procedure: as §1, §2

NCI-H1436 = system: NCI-H1436
Procedure: as §1, §2

SHP-77 = system: SHP-77
Procedure: as §1, §2

NCI-H446 = system: NCI-H446
Procedure: as §1, §2

NCI-H209 = system: NCI-H209
Procedure: as §1, §2

NCI-H889 = system: NCI-H889
Procedure: as §1, §2

DMS 53 = system: DMS 53
Procedure: as §1, §2

DMS 114 = system: DMS 114
Procedure: as §1, §2

NCI-H847 = system: NCI-H847
Procedure: as §1, §2

NCI-H1930 = system: NCI-H1930
Procedure: as §1, §2

DMS153 = system: DMS153
Procedure: as §1, §2

NCI-H146 = system: NCI-H146
Procedure: as §1, §2

NCI-H526 = system: NCI-H526
Procedure: as §1, §2

DMS79 = system: DMS79
Procedure: as §1, §2

NCI-H524 = system: NCI-H524
Procedure: as §1, §2

NCI-H378 = system: NCI-H378
Procedure: as §1, §2

NCI-H82 = system: NCI-H82
Procedure: as §1, §2

H69AR = system: H69AR
Procedure: as §1, §2

NCI-H69 = system: NCI-H69
Procedure: as §1, §2

[1] = 10% human serum, 48 hours, read-out: EC50
[2] = Homo sapiens, read-out: Response Designation

Question: For `CC1(C)CCC(c2ccc(Cl)cc2)=C(CN2CCN(c3ccc(C(=O)NS(=O)(=O)c4ccc(N[C@H](CCN5CCOCC5)CSc5ccccc5)c(S(=O)(=O)C(F)(F)F)c4)cc3)CC2)C1` [ABT-263, N-(4-(4-((2-(4-chlorophenyl)-5,5-dimethyl-1-cyclohex-1-en-1-yl)methyl)piperazin-1-yl)benzoyl)-4-(((1R)-3-(morpholin-4-yl)-1-((phenylsulfanyl)methyl)propyl)amino)-3-((trifluoromethyl)sulfonyl)benzenesulfonamide], which EC50 (NCI-H128; [1]) is on record?
Answer: 2500 nM

Question: What about the EC50 (NCI-H128; [2]) of the same molecule?
Answer: ≤ 4100 nM

Question: What about the EC50 (NCI-1417; [1]) of the same molecule?
Answer: 360 nM

Question: And the EC50 (NCI-1417; [2])?
Answer: ≤ 4100 nM

Question: What about the EC50 (NCI-H1618; [1]) of the same molecule?
Answer: 1400 nM

Question: What about the EC50 (NCI-H1618; [2]) of the same molecule?
Answer: ≤ 4100 nM

Question: What about the EC50 (NCI-H2107; [1]) of the same molecule?
Answer: 300 nM

Question: And the EC50 (NCI-H2107; [2])?
Answer: ≤ 4100 nM

Question: And the EC50 (NCI-H1436; [1])?
Answer: 1000 nM

Question: And the EC50 (NCI-H1436; [2])?
Answer: ≤ 4100 nM

Question: And the EC50 (SHP-77; Homo sapiens, SHP77, read-out: Response Designation)?
Answer: ≤ 4.1 µM

Question: And the EC50 (SHP-77; SHP77, 10% human serum, 48 hours, read-out: EC50)?
Answer: 3.9 µM

Question: What about the EC50 (NCI-H446; [1]) of the same molecule?
Answer: 4.1 µM

Question: And the EC50 (NCI-H446; [2])?
Answer: ≤ 4.1 µM

Question: What about the EC50 (NCI-H209; [1]) of the same molecule?
Answer: 1150 nM

Question: What about the EC50 (NCI-H209; [2]) of the same molecule?
Answer: ≤ 4100 nM

Question: And the EC50 (NCI-H889; [1])?
Answer: 140 nM

Question: What about the EC50 (NCI-H889; [2]) of the same molecule?
Answer: ≤ 4100 nM

Question: What about the EC50 (DMS 53; [1]) of the same molecule?
Answer: 1600 nM

Question: What about the EC50 (DMS 53; [2]) of the same molecule?
Answer: ≤ 4100 nM

Question: And the EC50 (DMS 114; [1])?
Answer: 33.9 µM

Question: And the EC50 (DMS 114; [2])?
Answer: > 4.1 µM

Question: What about the EC50 (NCI-H847; [1]) of the same molecule?
Answer: 60 nM

Question: What about the EC50 (NCI-H847; [2]) of the same molecule?
Answer: ≤ 4100 nM

Question: And the EC50 (NCI-H1930; [1])?
Answer: 3000 nM

Question: What about the EC50 (NCI-H1930; [2]) of the same molecule?
Answer: ≤ 4100 nM

Question: What about the EC50 (DMS153; DMS-153, 10% human serum, 48 hours, read-out: EC50) of the same molecule?
Answer: 11 µM

Question: What about the EC50 (DMS153; Homo sapiens, DMS-153, read-out: Response Designation) of the same molecule?
Answer: > 4.1 µM

Question: What about the EC50 (NCI-H146; [1]) of the same molecule?
Answer: 110 nM

Question: What about the EC50 (NCI-H146; [2]) of the same molecule?
Answer: ≤ 4100 nM

Question: And the EC50 (NCI-H526; [1])?
Answer: 12.6 µM

Question: And the EC50 (NCI-H526; [2])?
Answer: > 4.1 µM

Question: And the EC50 (DMS79; DMS-79, 10% human serum, 48 hours, read-out: EC50)?
Answer: 1900 nM

Question: What about the EC50 (DMS79; Homo sapiens, DMS-79, read-out: Response Designation) of the same molecule?
Answer: ≤ 4100 nM

Question: What about the EC50 (NCI-H524; [1]) of the same molecule?
Answer: 80 nM

Question: What about the EC50 (NCI-H524; [2]) of the same molecule?
Answer: ≤ 4100 nM

Question: And the EC50 (NCI-H378; [1])?
Answer: > 50 µM

Question: And the EC50 (NCI-H378; [2])?
Answer: > 4.1 µM

Question: And the EC50 (NCI-H82; [1])?
Answer: 22.4 µM

Question: What about the EC50 (NCI-H82; [2]) of the same molecule?
Answer: > 4.1 µM

Question: What about the EC50 (H69AR; [1]) of the same molecule?
Answer: 22.3 µM

Question: What about the EC50 (H69AR; [2]) of the same molecule?
Answer: > 4.1 µM

Question: What about the EC50 (NCI-H69; [1]) of the same molecule?
Answer: 710 nM

Question: And the EC50 (NCI-H69; [2])?
Answer: ≤ 4100 nM

Reference: patent US20100028889A1, “COMPANION DIAGNOSTIC ASSAYS FOR CANCER THERAPY” (ABBOTT LABORATORIES, priority 2006, published 2010)
